Laboratory results: patent US12213993B2, “Coated medicinal clay compositions, pharmaceutical compositions, and delivery of cation sources and methods of use thereof” (priority 2021, dated 2025)

Legend:
[1] = ion pair with chloride; cited from earlier work
[2] = Calculation of chloride binding by cations of clay/silver wound dressing in wound exudate; format: physicochemical; conditions: without the chelation of chloride provided by the medicinal clay
Description: Medicinal clay in a pharmaceutical composition was applied to an exemplary wound dressing, which incorporated an additional therapeutic cation, silver. Wound exudate is known to contain anions, which can interfere with the medicinal qualities of the medicinal clay and additional therapeutic agents when the medicinal clay comes into contact with the moisture of the wound exudate (a water source). Wound exudate is variable patient to patient, so an average amount of 101 mEq/L chloride anions was used. The medicinal clay of Example 1 was analyzed for cations, which may interact with the chloride in wound exudate. Table 5 describes an approximate amount of ions present the exemplary clay composition of the wound dressing (4×4 inch pad), silver added into the wound dressing for delivery with the clay, and wound exudate, as well as the amount of each in the exemplary wound dressing and wound exudate (grams). […] A skilled artisan will appreciate from the disclosure of the calculations that such a minimum effective amount can vary based on an exudate sample. Accordingly, the calculated atoms and weight (g) in Table 5 can have a variation of about ±30%, ±25%, ±20%, ±15%, or ±10%. The exemplary wound dressings comprise from about 0.1 to about 2.5 grams of the clay composition, preferably from about 0.2 to about 0.8 grams of the clay composition. […]

| SMILES | Lattice Energy [1] | silver in the dressing that chloride could bind prior to release [2] |
| --- | --- | --- |
| [Cl][Ag] [AgCl] | 187 kcal/mol |  |
| [Cl][Al]([Cl])[Cl] [AlCl3] | 1228 kcal/mol |  |
| [Ca+2].[Cl-].[Cl-] [CaCl2] | 542.1 kcal/mol |  |
| [Cl][Fe][Cl] [FeCl2] | 614 kcal/mol |  |
| [Cl][Fe]([Cl])[Cl] [FeCl3] | 1282 kcal/mol |  |
| [Cl-].[K+] [KCl] | 168 kcal/mol |  |
| [Cl-].[Cl-].[Mg+2] [MgCl2] | 592 kcal/mol |  |
| [Cl][Mn][Cl] [MnCl2] | 599.9 kcal/mol |  |
| [Cl-].[Na+] [NaCl] | 184 kcal/mol |  |
| [Ag+] [silver] |  | 72% |
